pIC50: −log10 of the molar value. Read-outs that look alike come from different tables or passages of the source. Where only a bound is given, the exact number is not on record here.

Drawing on patent US12606528B2, “Methods and materials for inhibiting NF-kB activity” (University of Pittsburgh - Of the Commonwealth System of …, priority 2019, dated 2026), this text covers IC50 for seven compounds.

The subject of one experiment is NF-κB. The experiment can be described thus: NF-κB assay: THP1-NF-κB-LUC cells, LPS-stimulated secreted luciferase. The class given is cell-based. Conditions: THP1-NF-κB-LUC cells, read-out: IC50 (NF-κB assay). In short, it runs like this:
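THP1-NF-κB-LUC cells (25k/well) were pretreated with compounds for 2 h, then stimulated with LPS (10 ng/mL) for 18 h. Secreted luciferase was measured and normalized to vehicle, and IC50 was fitted from the concentration series.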

For the next experiment, the system named is TNF release. The experiment can be described thus: TNF assay: TNF release from LPS-stimulated human PBMCs (TNF ELISA). The class given is cell-based. As to conditions: PBMC, read-out: IC50 (TNF assay). The essentials:
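TNF ELISA on supernatants read-out; cells were 10k human PBMCs/well given LPS at 10 ng/mL for 18 h after a 2 h compound pre-incubation across a concentration series, with IC50 derived for suppression of TNF secretion.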
Background: ELISA stands for enzyme-linked immunosorbent assay.

[1] abbreviates: LPS-stimulated human PBMCs, TNF ELISA.
Where [2] appears, read: compounds 2 hours before LPS (10 ng/mL) for 18 hours, secreted luciferase.
[3] abbreviates: human PBMCs, compounds 2 hours before LPS (10 ng/ml) for 18 hours, supernatant TNF ELISA.

For `CC(=O)N1CCN(c2ccc3nc(-c4ccc(F)cc4)c(-c4ccc(F)cc4)nc3c2)CC1` [BC19511], the pIC50 (commonly the negative decadic logarithm of the IC50, by convention in mol/L) is above 7.00 with NF-κB (LPS-stimulated) and below 5.00 in the experiment on TNF release (setting [1]).

For `CCC1Oc2c(cc(Br)cc2S(=O)(=O)Nc2ccc(C)c(Cl)c2)N(C)C1=O` (centres unmarked) [BC19937], the pIC50 in the experiment on NF-κB (setting [2]) is above 7.00; in the experiment on TNF release (setting [3]), 5.00 to 6.00.

On to `CCCS(=O)(=O)c1sc(-c2ccccc2F)nc1S(=O)(=O)c1ccc(Cl)cc1` [BC19628], for which the pIC50 with NF-κB (LPS-stimulated) and in the experiment on TNF release (setting [1]) was below 5.00 throughout.

Consider `O=C1COc2c(cc(Br)cc2S(=O)(=O)NCc2ccc(C(F)(F)F)cc2)N1` [BC19382], for which the pIC50 in the experiment on NF-κB (setting [2]) and in the experiment with TNF release (setting [3]) was below 5.00 each time.

For the compound `COc1ccc(Cl)c2c(=O)c(S(=O)(=O)c3ccc(F)c(F)c3)c[nH]c12` [BC19199], the negative-log IC50 (pIC50) was 6.00 to 7.00 in the experiment with NF-κB (setting [2]) and below 5.00 in the experiment on TNF release (setting [3]).

Regarding `CN1CCN(C(=O)c2cnc3nc(-c4ccc(F)cc4)c(-c4ccc(F)cc4)nc3c2)CC1` [BC19408], the pIC50 in the experiment on NF-κB (LPS-stimulated) is 6.00 to 7.00; in the experiment with TNF release (setting [1]), below 5.00.

For `CC(C)[S+]([O-])c1sc(-c2ccc(F)cc2)nc1S(=O)(=O)c1ccc(Cl)cc1` (centres unmarked) [BC19415], the pIC50 in the experiment with NF-κB (LPS-stimulated) is below 5.00; in the experiment with TNF release (setting [1]) it was 5.00 to 6.00.
